Several values for one entry are separate records, joined by “and”; a condition that tells them apart may be missing. Equal values may be shown once. Read-outs that look alike come from different tables or passages of the source.
Key:
Type in all cases: cell-based
HBV = assay: antihepatitis viral activity: HBV virion DNA and intracellular HBV DNA in cultured cells (blot hybridization)
Description: Details of the assay methodology can be found in: Korba and Milman, Antiviral Res., 15:217 (1991) and Korba and Gerin, Antiviral Res. (1992) (in press). The antiviral evaluations were performed on two separate passages of cells. All wells, in all plates, were seeded at the same density and at the same time. Due to the inherent variations in the levels of both intracellular and extracellular HBV DNA, only depressions greater than 3.5-fold (for HBV virion DNA) or 3.0-fold (for HBV DNA replication intermediates) from the average levels for these HBV DNA forms in untreated cells are generally considered to be statistically significant [P<0.05]. The levels of integrated HBV DNA in each cellular DNA preparation (which remain constant on a per cell basis in these experiments) were used to calculate the levels of intracellular HBV DNA forms, thereby eliminating technical variations inherent in the blot hybridization assays.
Typical values for extracellular HBV virion DNA in untreated cells range from 50 to 100 pg/ml culture medium (average of approximately 76 pg/ml). Intracellular HBV DNA replication intermediates in untreated cells range from 50 to 100 pg/μg cell DNA) (average approximately 74 pg/μg cell DNA). In general, depressions in the levels of intracellular HBV DNA due to treatment with antiviral compounds are less pronounced, and occur more slowly, than depressions in the levels of HBV virion DNA).
In the following data table, data is shown concerning analysis of intracellular HBV DNA at 24 hours following the 9th day of treatment. DNA in each cell DNA preparation were used to calculate the levels of episomal 3.2 Kb HBV genomes (MONO.) and HBV DNA replication intermediates (RI). A "zero" indicates an undetectable level of HBV DNA, sensitivity cutoff was 0.1 pg/ml.

[1] = toxicity analysis: uptake of neutral red dye; conditions: triplicate cultures, ± standard deviation, read-out: Neutral Red Dye Uptake at Indicated Drug Concentration
Description: (§1) Toxicity analyses were performed in order to assess whether any observed antiviral effects are due to a general effect on cell viability. The method used was uptake of neutral red dye, a standard and widely used assay for cell viability in a variety of virus-host systems, including HSV and HIV.
(§2) Toxicity results were performed in 96-well flat bottomed tissue cultures plates. Cells for the toxicity analyses were cultured and treated with test compounds with the same schedule as used for the antiviral evaluations. Each compound was tested at four concentrations, each in triplicate cultures. Uptake of neutral red dye was used to determine the relative level of toxicity. The absorbance of internalized dye at […] (A510) was used for the quantitative analysis. Values are presented as a percentage of the average A510 values (±standard deviations) in nine separate cultures of untreated cells maintained on the same 96-well plate as the test compounds.

cell viability = assay: toxicity analysis: uptake of neutral red dye; conditions: triplicate cultures, ± standard deviation
Description: as §1, §2

SMILES: Nc1ccn([C@H]2CC[C@@H](CO)O2)c(=O)n1 [2',3'-ddC, 2,3'-dideoxycytosine]
- effect on HBV DNA replication (in words) (HBV): significant depressions of HBV DNA replication
- Intracellular HBV DNA MONO. (episomal 3.2 Kb HBV genomes) (HBV; 10 μM, 24 hours following the 9th day of treatment): 1.6 pg/μg CELL DNA and 1.8 pg/μg CELL DNA
- HBV VIRION DNA DAY 0 (HBV; 10 μM, day 0): 63 pg/ml CULTURE MEDIUM and 87 pg/ml CULTURE MEDIUM and 82 pg/ml CULTURE MEDIUM
- HBV VIRION DNA DAY 3 (HBV; 10 μM, day 3): 75 pg/ml CULTURE MEDIUM and 56 pg/ml CULTURE MEDIUM and 61 pg/ml CULTURE MEDIUM
- HBV VIRION DNA DAY 6 (HBV; 10 μM, day 6): 26 pg/ml CULTURE MEDIUM
- HBV VIRION DNA DAY 9 (HBV; 10 μM, day 9, zero = undetectable, cutoff 0.1 pg/ml): 2 pg/ml CULTURE MEDIUM and 1 pg/ml CULTURE MEDIUM
- inhibition at 9 µM (HBV; Hepatitis B virus, read-out: depression of HBV RI relative to average levels in untreated cells): 90%
- viability ([1]; 1000 μg/ml): 12 ± 5%
- viability ([1]; 3000 μg/ml): 40 ± 4%
- Neutral Red Dye Uptake at Indicated Drug Concentration (cell viability; 10 μg/ml): 102 ± 2 % of Control
- Neutral Red Dye Uptake at Indicated Drug Concentration (cell viability; 30 μg/ml): 101 ± 3 % of Control

Reference: patent publication US5316775A, “Method of treating hepatitis B infection” (Kremers-Urban Company, priority 1993, dated 1994)
